Measured values from ChEMBL document CHEMBL1201862, “PubChem BioAssay data set” (2004).
Active and inactive are the calls of the source.

What was measured:
[1] = target: T1, Endoribonuclease toxin MazF (Escherichia coli K-12, UniProt P0AE70); assay: activation of MazEF endoribonuclease cleavage – biochemical, fluorescence, single-stranded RNA substrate, uHTS hits, dose response (AID 588481); type: functional
T1 sequence (P0AE70 whole entry): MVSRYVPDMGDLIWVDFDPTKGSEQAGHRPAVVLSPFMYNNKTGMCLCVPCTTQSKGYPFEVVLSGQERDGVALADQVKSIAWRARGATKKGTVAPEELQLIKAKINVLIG

Protein skinhead-1 = target: T2, Protein skinhead-1 (Caenorhabditis elegans, UniProt P34707); type: functional
T2 sequence (P34707 whole entry): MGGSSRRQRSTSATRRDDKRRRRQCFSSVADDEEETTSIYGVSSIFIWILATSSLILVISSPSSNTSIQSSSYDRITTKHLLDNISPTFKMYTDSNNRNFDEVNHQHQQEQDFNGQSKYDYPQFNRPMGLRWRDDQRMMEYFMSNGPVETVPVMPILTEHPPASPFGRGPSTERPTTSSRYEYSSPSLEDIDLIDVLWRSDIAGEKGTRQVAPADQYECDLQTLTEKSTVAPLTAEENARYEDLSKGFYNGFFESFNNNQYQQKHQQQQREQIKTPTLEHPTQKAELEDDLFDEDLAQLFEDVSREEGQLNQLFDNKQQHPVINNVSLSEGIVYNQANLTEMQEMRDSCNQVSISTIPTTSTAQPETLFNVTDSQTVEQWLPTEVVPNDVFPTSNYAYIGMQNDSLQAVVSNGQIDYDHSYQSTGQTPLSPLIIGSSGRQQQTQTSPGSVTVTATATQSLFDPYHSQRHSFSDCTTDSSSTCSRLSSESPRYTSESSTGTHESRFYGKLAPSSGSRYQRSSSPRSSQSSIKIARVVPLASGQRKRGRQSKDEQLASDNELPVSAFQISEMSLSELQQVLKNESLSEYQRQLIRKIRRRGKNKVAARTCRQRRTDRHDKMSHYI

[2] = target: T1, Endoribonuclease toxin MazF; assay: substrate-only fluorescence increase artefacts – biochemical, single-stranded RNase substrate, counter-screen for MazEF activator project, dose response (AID 588502); type: functional
[3] = target: Adenosylmethionine-8-amino-7-oxononanoate aminotransferase (Mycobacterium tuberculosis, UniProt P9WQ81); assay: Mycobacterium tuberculosis BioA enzyme inhibitor Measured in Biochemical System Using Plate Reader - 2163-02_Inhibitor_Dose_CherryPick_Activity.; type: functional, Mycobacterium tuberculosis UT205
[4] = Counterscreen for inhibitors of Trypanosoma brucei methionyl tRNA synthetase (MetRS): Luminescence-based cell-based high throughput dose response assay to identify compounds that are cytotoxic to Jurkat human T lymphocyte cells.; type: functional
[5] = target: Hepatocyte nuclear factor 4-alpha (Homo sapiens, UniProt P41235); type: functional, cell-based;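 note: biochemical luminescence-based dose-response counterscreen measuring inhibition of HNF4 dimerization, run alongside a screen for blockers of ABHD5–perilipin-5 interaction; split luciferase complementation of HNF4 fusion proteins in cell lysate measuring dimerization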
[6] = target: T3, High affinity choline transporter 1 (Homo sapiens, UniProt Q9GZV3); assay: human choline transporter blockers, potency – cell-based, 10-point CRC, membrane potential dye, dose response (AID 588401); type: functional;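 note: membrane potential dye fluorescence of choline-evoked depolarization via CHT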
T3 sequence (Q9GZV3 whole entry): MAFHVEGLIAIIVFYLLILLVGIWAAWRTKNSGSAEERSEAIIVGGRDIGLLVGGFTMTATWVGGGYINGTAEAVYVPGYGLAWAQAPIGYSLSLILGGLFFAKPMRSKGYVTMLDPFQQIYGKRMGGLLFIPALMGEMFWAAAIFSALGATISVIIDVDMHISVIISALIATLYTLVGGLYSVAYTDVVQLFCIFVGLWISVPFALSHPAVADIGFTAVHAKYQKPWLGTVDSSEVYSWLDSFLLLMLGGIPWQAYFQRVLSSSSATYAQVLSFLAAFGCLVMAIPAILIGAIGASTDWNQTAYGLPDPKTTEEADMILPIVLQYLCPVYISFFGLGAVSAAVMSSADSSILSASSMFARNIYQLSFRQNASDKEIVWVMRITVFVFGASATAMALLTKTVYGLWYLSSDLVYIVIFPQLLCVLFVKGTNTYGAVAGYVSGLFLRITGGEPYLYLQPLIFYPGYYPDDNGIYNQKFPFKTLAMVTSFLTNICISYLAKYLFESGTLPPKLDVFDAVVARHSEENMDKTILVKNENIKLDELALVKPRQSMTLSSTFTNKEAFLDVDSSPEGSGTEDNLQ

[7] = target: T3, High affinity choline transporter 1; assay: human choline transporter blockers, potency – cell-based, 5-point CRC, membrane potential dye, dose response (AID 504840); type: functional
[8] = target: DNA (cytosine-5)-methyltransferase 1 (Homo sapiens, UniProt P26358); assay: inhibition of DNA methylation by DNMT1 – biochemical, fluorescent molecular beacon, confirmation (AID 602386); type: functional
[9] = target: T4, Histone-lysine N-methyltransferase NSD2 (Homo sapiens, UniProt O96028); type: biochemical
T4 sequence (O96028 whole entry): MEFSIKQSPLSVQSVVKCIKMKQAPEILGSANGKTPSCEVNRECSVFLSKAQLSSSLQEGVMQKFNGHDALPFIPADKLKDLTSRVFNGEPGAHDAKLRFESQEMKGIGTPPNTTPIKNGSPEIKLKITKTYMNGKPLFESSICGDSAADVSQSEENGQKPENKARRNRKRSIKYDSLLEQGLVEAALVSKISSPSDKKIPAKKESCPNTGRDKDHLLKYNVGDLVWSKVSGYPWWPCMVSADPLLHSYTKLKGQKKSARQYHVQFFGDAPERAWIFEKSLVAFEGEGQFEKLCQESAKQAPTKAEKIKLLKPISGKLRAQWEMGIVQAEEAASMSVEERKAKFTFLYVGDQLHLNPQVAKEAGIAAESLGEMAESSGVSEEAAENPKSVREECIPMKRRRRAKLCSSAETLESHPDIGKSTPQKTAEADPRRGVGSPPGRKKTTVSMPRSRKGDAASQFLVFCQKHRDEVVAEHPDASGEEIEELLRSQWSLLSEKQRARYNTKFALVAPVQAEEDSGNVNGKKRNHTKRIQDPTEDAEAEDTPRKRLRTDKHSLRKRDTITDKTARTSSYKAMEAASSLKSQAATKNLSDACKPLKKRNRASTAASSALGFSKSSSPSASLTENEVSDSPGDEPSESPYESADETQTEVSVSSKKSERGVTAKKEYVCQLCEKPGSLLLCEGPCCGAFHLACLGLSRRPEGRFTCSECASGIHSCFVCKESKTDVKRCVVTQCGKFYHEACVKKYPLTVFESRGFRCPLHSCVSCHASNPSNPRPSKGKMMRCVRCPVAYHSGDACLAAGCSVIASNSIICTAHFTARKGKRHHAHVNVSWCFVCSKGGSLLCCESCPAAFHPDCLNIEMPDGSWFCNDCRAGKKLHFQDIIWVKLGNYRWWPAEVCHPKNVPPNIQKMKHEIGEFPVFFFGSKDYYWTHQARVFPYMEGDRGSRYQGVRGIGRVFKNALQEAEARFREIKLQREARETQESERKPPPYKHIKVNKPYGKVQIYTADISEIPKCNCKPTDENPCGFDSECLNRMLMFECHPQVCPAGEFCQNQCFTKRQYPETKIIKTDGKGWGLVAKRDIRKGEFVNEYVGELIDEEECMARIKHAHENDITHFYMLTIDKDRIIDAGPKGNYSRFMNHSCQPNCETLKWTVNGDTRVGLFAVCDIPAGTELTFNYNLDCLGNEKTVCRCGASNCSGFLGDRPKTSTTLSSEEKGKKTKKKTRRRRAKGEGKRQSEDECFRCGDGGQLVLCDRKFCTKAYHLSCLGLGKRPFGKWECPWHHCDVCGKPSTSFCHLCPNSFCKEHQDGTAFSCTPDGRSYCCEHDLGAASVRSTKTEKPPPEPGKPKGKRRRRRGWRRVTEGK

[10] = target: 72 kDa type IV collagenase (Homo sapiens, UniProt P08253); assay: Dose Response validation of uHTS RPN11 inhibitor hits using a MMP-2 Fluorescence assay.; type: functional
[11] = target: 26S proteasome non-ATPase regulatory subunit 14 (Homo sapiens, UniProt O00487); assay: inhibition of proteasome subunit RPN11 – biochemical, fluorescence polarization, uHTS hits, confirmation (AID 602368); type: functional
Prothrombin = Prothrombin (Bos taurus, UniProt P00735); assay: thrombin protease inhibitors – biochemical, fluorescence polarization, uHTS hits, dose response (AID 602369); type: functional
[12] = target: Protein disulfide-isomerase (Homo sapiens, UniProt P07237); assay: inhibition of PDI-driven insulin aggregation – biochemical, turbidity, absorbance, cherry-picked samples, dose response (AID 602350); type: functional
[13] = target: T5, DNA repair and recombination protein RAD54-like (Homo sapiens, UniProt Q92698); assay: RAD54 Holliday junction migration blockers – biochemical, fluorescence, cherry-picked samples, dose series, confirmation (AID 651657); type: functional
T5 sequence (Q92698 whole entry): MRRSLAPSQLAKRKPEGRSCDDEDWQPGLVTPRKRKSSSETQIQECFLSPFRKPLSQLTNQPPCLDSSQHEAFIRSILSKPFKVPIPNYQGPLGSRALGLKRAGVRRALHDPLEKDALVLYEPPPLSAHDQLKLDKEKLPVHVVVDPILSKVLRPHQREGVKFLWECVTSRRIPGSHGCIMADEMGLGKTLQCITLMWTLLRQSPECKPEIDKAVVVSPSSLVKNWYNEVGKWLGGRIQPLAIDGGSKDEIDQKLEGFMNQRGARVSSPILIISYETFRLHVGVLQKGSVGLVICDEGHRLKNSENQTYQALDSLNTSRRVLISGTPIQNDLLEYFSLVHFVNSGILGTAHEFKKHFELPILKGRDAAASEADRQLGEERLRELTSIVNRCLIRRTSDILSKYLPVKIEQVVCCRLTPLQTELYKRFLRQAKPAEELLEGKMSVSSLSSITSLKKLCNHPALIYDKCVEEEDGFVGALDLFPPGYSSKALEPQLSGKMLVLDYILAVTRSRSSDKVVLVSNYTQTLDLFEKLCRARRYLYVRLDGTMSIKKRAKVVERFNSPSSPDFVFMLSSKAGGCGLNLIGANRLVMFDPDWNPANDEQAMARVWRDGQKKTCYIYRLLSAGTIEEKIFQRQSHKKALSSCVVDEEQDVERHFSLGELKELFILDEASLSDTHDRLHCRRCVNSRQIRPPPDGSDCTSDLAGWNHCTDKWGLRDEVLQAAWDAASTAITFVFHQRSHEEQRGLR

26S proteasome non-ATPase regulatory subunit 14, sequence (O00487 whole entry): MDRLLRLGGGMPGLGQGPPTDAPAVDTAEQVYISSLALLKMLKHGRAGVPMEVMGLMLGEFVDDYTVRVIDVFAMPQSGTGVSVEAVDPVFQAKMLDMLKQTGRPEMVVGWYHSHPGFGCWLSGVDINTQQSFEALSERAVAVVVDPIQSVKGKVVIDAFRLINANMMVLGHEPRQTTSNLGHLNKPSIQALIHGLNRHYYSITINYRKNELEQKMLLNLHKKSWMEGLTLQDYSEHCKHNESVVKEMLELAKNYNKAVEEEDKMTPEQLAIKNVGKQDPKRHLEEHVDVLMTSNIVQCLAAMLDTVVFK
72 kDa type IV collagenase, sequence (P08253 whole entry): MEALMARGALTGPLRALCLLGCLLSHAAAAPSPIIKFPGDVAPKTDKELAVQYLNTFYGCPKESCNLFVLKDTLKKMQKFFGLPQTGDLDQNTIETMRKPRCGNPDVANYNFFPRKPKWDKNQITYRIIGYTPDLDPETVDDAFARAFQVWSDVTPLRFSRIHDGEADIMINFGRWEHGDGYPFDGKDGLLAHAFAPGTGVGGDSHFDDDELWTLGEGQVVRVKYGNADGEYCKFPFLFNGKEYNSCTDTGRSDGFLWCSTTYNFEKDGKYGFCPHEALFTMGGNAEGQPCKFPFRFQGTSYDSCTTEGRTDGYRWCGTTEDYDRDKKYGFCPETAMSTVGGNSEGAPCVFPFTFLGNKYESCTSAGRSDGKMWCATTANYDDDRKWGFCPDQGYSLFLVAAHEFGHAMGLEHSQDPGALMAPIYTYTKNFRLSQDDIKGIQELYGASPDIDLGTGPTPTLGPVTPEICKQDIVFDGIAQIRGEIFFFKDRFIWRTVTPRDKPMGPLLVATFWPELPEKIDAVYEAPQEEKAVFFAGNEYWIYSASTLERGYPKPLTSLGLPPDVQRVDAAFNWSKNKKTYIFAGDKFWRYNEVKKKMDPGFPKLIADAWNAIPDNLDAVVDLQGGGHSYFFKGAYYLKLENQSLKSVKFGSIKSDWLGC
Adenosylmethionine-8-amino-7-oxononanoate aminotransferase, sequence (P9WQ81 whole entry): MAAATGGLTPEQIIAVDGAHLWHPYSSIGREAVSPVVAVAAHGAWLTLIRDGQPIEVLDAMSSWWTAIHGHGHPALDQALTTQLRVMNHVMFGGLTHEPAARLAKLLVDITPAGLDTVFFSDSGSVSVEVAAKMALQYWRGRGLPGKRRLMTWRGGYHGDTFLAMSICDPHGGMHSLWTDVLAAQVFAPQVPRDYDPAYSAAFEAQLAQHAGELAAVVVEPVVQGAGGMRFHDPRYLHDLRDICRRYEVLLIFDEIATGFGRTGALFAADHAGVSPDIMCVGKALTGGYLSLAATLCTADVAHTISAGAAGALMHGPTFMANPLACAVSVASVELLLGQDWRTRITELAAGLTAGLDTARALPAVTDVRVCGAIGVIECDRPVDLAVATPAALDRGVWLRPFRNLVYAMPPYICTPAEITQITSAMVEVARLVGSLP
Hepatocyte nuclear factor 4-alpha, sequence (P41235 whole entry, the tested form may be a part): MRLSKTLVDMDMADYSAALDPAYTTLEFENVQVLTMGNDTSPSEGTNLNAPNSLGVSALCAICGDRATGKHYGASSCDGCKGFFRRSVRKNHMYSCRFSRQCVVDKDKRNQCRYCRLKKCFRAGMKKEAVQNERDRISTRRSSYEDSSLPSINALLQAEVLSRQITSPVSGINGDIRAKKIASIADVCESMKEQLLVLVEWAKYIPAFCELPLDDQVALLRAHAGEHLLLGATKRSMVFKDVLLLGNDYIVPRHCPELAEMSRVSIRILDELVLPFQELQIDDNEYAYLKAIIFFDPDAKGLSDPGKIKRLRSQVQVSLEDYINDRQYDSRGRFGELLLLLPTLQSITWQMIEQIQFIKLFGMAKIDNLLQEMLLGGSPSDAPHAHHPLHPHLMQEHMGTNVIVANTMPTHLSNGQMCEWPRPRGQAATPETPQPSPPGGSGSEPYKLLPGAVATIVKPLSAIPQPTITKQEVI
Protein disulfide-isomerase, sequence (P07237 whole entry): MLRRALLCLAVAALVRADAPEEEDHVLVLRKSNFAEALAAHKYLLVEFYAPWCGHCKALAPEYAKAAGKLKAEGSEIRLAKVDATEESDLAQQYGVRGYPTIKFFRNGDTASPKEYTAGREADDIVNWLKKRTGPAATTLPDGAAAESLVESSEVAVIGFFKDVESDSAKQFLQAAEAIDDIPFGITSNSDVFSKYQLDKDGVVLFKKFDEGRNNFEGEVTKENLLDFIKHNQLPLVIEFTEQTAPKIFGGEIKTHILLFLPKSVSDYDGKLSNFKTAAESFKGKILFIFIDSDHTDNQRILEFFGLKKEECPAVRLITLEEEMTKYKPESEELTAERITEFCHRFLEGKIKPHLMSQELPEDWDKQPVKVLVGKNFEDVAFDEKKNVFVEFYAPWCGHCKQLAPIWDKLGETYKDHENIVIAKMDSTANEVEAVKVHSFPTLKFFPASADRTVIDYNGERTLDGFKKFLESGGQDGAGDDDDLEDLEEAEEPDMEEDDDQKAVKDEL
DNA (cytosine-5)-methyltransferase 1, sequence (P26358 whole entry): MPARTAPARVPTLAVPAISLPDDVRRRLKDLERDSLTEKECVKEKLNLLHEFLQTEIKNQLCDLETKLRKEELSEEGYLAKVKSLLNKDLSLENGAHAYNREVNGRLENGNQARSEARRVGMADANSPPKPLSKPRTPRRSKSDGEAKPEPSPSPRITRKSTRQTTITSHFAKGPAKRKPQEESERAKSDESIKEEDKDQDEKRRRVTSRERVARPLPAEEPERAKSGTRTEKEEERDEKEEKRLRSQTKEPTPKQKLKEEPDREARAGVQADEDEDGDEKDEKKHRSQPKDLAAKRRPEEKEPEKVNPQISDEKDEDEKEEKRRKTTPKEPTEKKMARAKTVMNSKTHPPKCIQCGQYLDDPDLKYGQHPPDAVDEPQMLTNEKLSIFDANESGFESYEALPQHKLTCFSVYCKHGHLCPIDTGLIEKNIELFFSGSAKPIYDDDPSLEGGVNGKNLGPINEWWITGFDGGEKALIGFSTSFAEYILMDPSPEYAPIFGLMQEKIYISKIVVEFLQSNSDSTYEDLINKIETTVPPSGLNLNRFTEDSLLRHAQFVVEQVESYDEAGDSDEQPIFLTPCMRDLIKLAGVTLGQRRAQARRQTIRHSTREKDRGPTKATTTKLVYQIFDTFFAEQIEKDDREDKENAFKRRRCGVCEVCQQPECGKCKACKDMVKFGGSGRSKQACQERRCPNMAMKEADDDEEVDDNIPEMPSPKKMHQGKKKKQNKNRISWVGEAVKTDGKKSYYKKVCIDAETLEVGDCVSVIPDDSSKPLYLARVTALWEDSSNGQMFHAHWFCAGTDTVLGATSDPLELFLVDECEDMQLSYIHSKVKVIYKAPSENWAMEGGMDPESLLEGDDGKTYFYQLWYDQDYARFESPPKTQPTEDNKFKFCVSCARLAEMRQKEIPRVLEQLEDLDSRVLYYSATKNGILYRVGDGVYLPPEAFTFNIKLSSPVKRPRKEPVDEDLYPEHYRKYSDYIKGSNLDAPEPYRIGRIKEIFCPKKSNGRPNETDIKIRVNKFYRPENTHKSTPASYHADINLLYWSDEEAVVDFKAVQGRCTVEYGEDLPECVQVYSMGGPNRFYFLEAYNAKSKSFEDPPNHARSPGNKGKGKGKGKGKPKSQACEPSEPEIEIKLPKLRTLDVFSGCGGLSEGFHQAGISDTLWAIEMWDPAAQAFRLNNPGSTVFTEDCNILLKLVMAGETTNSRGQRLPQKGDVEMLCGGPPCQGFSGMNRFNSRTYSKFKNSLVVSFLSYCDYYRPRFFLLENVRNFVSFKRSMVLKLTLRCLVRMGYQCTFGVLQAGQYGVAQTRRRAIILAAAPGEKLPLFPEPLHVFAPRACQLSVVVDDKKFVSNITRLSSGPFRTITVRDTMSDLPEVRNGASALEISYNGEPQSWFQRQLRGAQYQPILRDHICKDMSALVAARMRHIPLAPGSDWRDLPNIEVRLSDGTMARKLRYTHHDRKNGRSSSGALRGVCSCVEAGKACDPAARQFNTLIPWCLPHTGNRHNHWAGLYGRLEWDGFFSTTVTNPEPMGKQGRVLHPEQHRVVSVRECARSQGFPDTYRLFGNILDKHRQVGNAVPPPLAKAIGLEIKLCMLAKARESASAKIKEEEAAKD

COC(=O)CSc1nc2cc(C)cc(C)c2cc1C#N
EC50 [1]: > 99 µM (inactive) | IC50 (Protein skinhead-1): > 100 µM (inactive) | EC50 [2]: > 99 µM (inactive)

Cc1cc(C(=O)NC2CC(C)(C)Cc3c2cnn3-c2cccc(F)c2)nn1C (centres undefined)
AC50 [3]: 2.72 µM (active)

Cc1cccc(NS(=O)(=O)c2ccc3[nH]c(-c4ccccc4)nc3c2)c1C
IC50 [4]: 25.1 µM (inactive)

Cc1cccc(C)c1NC(=O)C(c1ccc(C#N)cc1)n1c(=O)c(-c2ccco2)nc2ccccc21 (centres undefined)
IC50 [5]: 1.86 µM (active)

COc1ccc(C2=NN(c3ccc(C(=O)O)cc3)C(c3ccc(OC)c(OC)c3)C2)cc1 (centres undefined)
IC50 [6]: 3.55 µM (active) | IC50 [7]: 4.79 µM (active)

O=C(OCCCOc1ccc(F)cc1)c1ccc(O)cc1O
IC50 [6]: 4.47 µM (active) | IC50 [7]: 3.59 µM (active)

CC1=C/C(=C\c2ccc(Br)o2)C(=O)O1
IC50 [8]: 4.99 µM (active) | AC50 [9]: 4.71 µM (active)

N=C1CCCN1CC(=O)c1ccc(Cl)cc1
IC50 [6]: 2.7 µM (active) | IC50 [7]: 6.01 µM (active)

O=C(Nc1nc(-c2ccc(F)c(F)c2)cs1)Nc1ccc(F)cc1F
IC50 [10]: > 100 µM (inactive) | IC50 [11]: 30.3 µM (active) | IC50 (Prothrombin): 78.3 µM (active)

CC(=O)OC[C@H]1O[C@@H](Oc2cc(O)cc3oc(-c4ccc(O)cc4)cc(=O)c23)[C@H](O[C@@H]2O[C@@H](C)[C@H](O)[C@@H](O)[C@H]2O)[C@@H](O)[C@@H]1O
AC50 [12]: 19.5 µM (active)

C=C1C(=O)O[C@H]2C[C@H]1[C@@H](OC(C)=O)C/C(C)=C/CC/C(C)=C\CC[C@]2(C)O
IC50 [5]: 3.21 µM (active)

COc1cccc(/C=C(/CC(=O)Nc2ccc(N3CCOCC3)cc2)c2nc3ccccc3s2)c1
IC50 [10]: > 100 µM (inactive) | IC50 [11]: 12.6 µM (active) | IC50 (Prothrombin): 25 µM (active)

CN1CCN(c2[nH]cnc3c4cc(F)ccc4nc2-3)CC1
AC50 [13]: 28.8 µM (active) | AC50 [3]: 2.8 µM (active)
